Source: patent US9603844B2, “Compositions and methods for treating mammary tumors” (GEORGETOWN UNIVERSITY, priority 2012, dated 2017)

Assays:
[1] = test system: progesterone receptor (PR) activity in T47D cells; experiment: MMTV-Luc reporter assay for PR activity in T47D cells; format: cell-based, human; conditions: R5020 10 nM
Experimental: FIG. 10 depicts that the inhibition of ER activity by these six compounds is not to due to non-specific cytotoxicity, since cell viability remained over 80% after a 24-hr exposure to 1 μM of each of the compounds (A). One of the compounds was tested for its ability to inhibit progestin-stimulated progesterone receptor (PR) activity in a PR+ human breast cancer cell line (T47D), using the MMTV-Luc reporter as a readout for PR activity (B). Here, PR activity was stimulated over 20-fold by the synthetic progestin R5020 (10 nM), but compound 4631-P/1 had no effect on PR activity at either 1 μM or 20 μM.
Progesterone receptor (PR) transcriptional activity assays were carried out in T47D cells using the synthetic progestin R5020 (10 nM) to activate PR and the MMTV-Luc reporter as a readout for PR activity.
Subconfluent proliferating MCF-7 cells were treated with vehicle (DMSO) or with the a sensitizing compound for 24 hours and then assayed for cell viability using MTT dye reduction assays. […] Subconfluent proliferating T47D cells were also transfected overnight with a progesterone-responsive reporter (MMTV-Luc) and then exposed to a synthetic progestin (R5020, 10 nM) for 24 hours in the absence or presence of compound 4631 P/1, as indicated.

[2] = test system: ER activity in LCC9 cells; experiment: ERE-TK-Luc reporter assay in LCC9 cells; format: cell-based, human; conditions: Tam 5 μM, wtBRCA1 expression vector transfected
Experimental: FIG. 3 depicts the inhibition of ER activity in anti-estrogen resistant LCC9 cells. LCC9 cells in 24-well dishes were transfected overnight with the ERE-TK-Luc reporter plasmid (0.25 μg per well), washed, and allowed to recover for several hours in fresh culture medium. The cells were then treated with the indicated concentrations of the six bioactive compounds or vehicle only (DMSO) for 24 hr and assayed for luciferase activity. Luciferase activity is expressed as a percentage of the DMSO control. Values are means±SEMs of four replicate wells.
FIG. 8 depicts BRCA1 over-expression partially restores Tamoxifen sensitivity to anti-estrogen-resistant LCC9 cells. The effect of BRCA1 over-expression (by transfection of a wild-type (wt) full-length BRCA1 expression vector) was studied in E2-insensitive anti-estrogen resistant LCC9 human breast cancer cells with E2-sensitive/anti-estrogen sensitive MCF-7 breast cancer cells. The wtBRCA1 suppressed the constitutive ER activity (measured using the ERE-TK-Luc reporter as a readout), but Tam (5 μM) by itself had no effect on ER activity (A and B (left)). […] When MCF-7 cells were tested in the absence of E2, ER activity was very low under most conditions (illustrating the requirement for E2 to activate ER), but in the absence of E2, Tam functioned as an ER agonist and caused about a (5-6)-fold increase in ER activity (P<0.001). […]

[3] = test system: ER activity in MCF-7 cells; experiment: ERE-TK-Luc reporter assay in MCF-7 cells; format: cell-based, human
Source text: FIG. 8 depicts BRCA1 over-expression partially restores Tamoxifen sensitivity to anti-estrogen-resistant LCC9 cells. The effect of BRCA1 over-expression (by transfection of a wild-type (wt) full-length BRCA1 expression vector) was studied in E2-insensitive anti-estrogen resistant LCC9 human breast cancer cells with E2-sensitive/anti-estrogen sensitive MCF-7 breast cancer cells. The wtBRCA1 suppressed the constitutive ER activity (measured using the ERE-TK-Luc reporter as a readout), but Tam (5 μM) by itself had no effect on ER activity (A and B (left)). […] When MCF-7 cells were tested in the absence of E2, ER activity was very low under most conditions (illustrating the requirement for E2 to activate ER), but in the absence of E2, Tam functioned as an ER agonist and caused about a (5-6)-fold increase in ER activity (P<0.001).
FIG. 9 depicts the inhibition of E2-stimulated ER activity in MCF-7 cells by six compounds.
Subconfluent cells in 24-well dishes were transfected overnight with 0.25 μg of each indicated vector plus the ERE-TK-Luc reporter in serum-free DMEM containing Lipofectamine2000 (Life Technologies). The total transfected DNA was kept constant by addition of the appropriate control vector. […]

[4] = test system: cathepsin D (E2/ER-regulated gene) in MCF-7 cells; experiment: cathepsin D protein expression in MCF-7 cells; format: cell-based, human; conditions: 24-hr exposure to E2 (10 nM)
Experimental: FIG. 7 depicts the ability of compounds 4631-P/1 and 35466-L/1 to inhibit the expression of an ER-regulated gene. Cathepsin D was used as a prototype E2/ER-regulated gene.
For Western blotting, after the indicated treatment(s), cells were harvested, and whole-cell lysates were prepared using RIPA buffer (Santa Cruz). Equal aliquots of whole-cell protein (either 100 μg unprecipitated whole-cell lysate or one half of the precipitated protein from 500 μg whole-cell lysate) were electrophoresed on 4-12% SDS-polyacrylamide gradient gels, transferred to nitrocellulose membranes (Millipore, Bedford, Mass.), and blotted using primary antibodies directed against BRCA1 (C-20, rabbit polyclonal, 1:200 dilution; Santa Cruz), ER (F10, mouse monoclonal, sc-8002, 1:500; Santa Cruz), and actin (goat polyclonal, catalog item sc-1615, 1:400; Santa Cruz). The membranes were then blotted with the appropriate secondary antibodies (1:1000; Santa Cruz), and the blotted proteins were visualized using an electrochemiluminescence (ECL) detection system (Amersham Biosciences), with colored markers (Bio-Rad Laboratories, Hercules, Calif.) as molecular size standards.

BRCA1 protein levels = experiment: siRNA efficacy validation by Western blotting; format: cell-based; conditions: minimum 48 hr exposure to 100 nM siRNA
Experimental: (catalog number: 43924220, Ambion/Life Technologies; and negative control-siRNA (catalog number: AM4461, Ambion). The efficacy of the ER-siRNA was validated by Western blotting. For siRNA treatments, subconfluent cells were treated with ER-specific or control siRNAs (final concentration of 100 nM) using siPORT Amine transfection reagent (Ambion), according to the manufacturer's instructions.

CCC(=O)[C@@]1(C)CC[C@H]2[C@@H]3CCC4=CC(=O)CCC4=C3CC[C@@]21C [R5020]
stimulation of PR activity [1]: over 20 fold

CC/C(=C(\c1ccccc1)c1ccc(OCCN(C)C)cc1)c1ccccc1 [Tam, Tamoxifen]
constitutive ER activity in LCC9 cells (ERE-TK-Luc) [2]: no effect
increase in ER activity in the absence of E2 ([3]; absence of E2, P<0.001): 5-6 fold
E2-stimulated ER activity in MCF-7 cells (ERE-TK-Luc) ([3]; with E2): strongly suppressed

C[C@]12CC[C@@H]3c4ccc(O)cc4CC[C@H]3[C@@H]1CC[C@@H]2O [E2, 17β-estradiol]
cathepsin D protein levels after E2 [4]: increased significantly

ER-siRNA: ER-α small interfering RNA, Ambion catalog number 43924220 (sense CAGGCACAUGAGUAACAAATT; antisense UUUGUUACUCAUGUGCCUGAT; chemistry not given here)
reduction of the BRCA1 protein levels (BRCA1 protein levels): > 75%
